# In patent US8486892B2, “Blood coagulation factor inhibitors” (Novo Nordisk Health Care AG, priority 2008, dated 2013):
# Molecular target: T1, 40K-PEG-rFVIIa (Homo sapiens, UniProt P08709)
# T1 construct: Typically, Factor VII is cleaved between residues 152 and 153 to yield Factor VIIa; 40K-PEG (about 40 kDa PEG on a glycan)
# T1 sequence (P08709 213-466 limits assumed): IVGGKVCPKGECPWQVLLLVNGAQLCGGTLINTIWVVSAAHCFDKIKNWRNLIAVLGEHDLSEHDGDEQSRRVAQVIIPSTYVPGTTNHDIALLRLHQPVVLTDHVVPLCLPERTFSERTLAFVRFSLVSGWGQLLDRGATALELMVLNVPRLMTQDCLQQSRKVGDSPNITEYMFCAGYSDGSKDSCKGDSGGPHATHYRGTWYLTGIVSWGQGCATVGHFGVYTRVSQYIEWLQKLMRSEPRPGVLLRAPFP
# T1 sequence (P08709 61-212 limits assumed): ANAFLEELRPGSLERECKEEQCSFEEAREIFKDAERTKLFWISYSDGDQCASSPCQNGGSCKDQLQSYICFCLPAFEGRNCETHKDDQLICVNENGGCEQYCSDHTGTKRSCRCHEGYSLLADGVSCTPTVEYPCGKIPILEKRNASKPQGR
# Test: Stability experiment on 40K-PEG-rFVIIa in solution, clot activity by One-stage Coagulation Assay (Assay 4)
# Format: biochemical
# Settings: 20 mg/ml 40K-PEG-rFVIIa, pH 7.0, 3 months at 25° C.
# Protocol: Factor VII polypeptides may also be assayed for specific activities (“clot activity”) by using a one-stage coagulation assay (Assay 4). For this purpose, the sample to be tested is diluted in 50 mM PIPES-buffer (pH 7.2), 1% BSA and 40 μl is incubated with 40 μl of Factor VII deficient plasma and 80 μl of human recombinant tissue factor containing 10 mM Ca^2+ and synthetic phospholipids. Coagulation times (clotting times) are measured and compared to a standard curve using a reference standard in a parallel line assay.
# In order to investigate the stabilizing effect of the compounds described by the current invention on Factor VIIa molecules in solution, a stability experiment was performed on 40K-PEG-rFVIIa.
# The investigated formulations contained 0, 1, 10 or 30 mM n-propyloxycarbonyl-Phe(4-amidino)-Glu-Asn-Cha-(OEG)5-NH2, and all contained 20 mg/ml 40K-PEG-rFVIIa, 20 mM histidine, pH 7.0, 6% sucrose, 20 mM CaCl2, 0.5 mg/ml methionine. The samples were incubated 3 months at 25° C., and analysed for clot activity using the above-described “One-stage Coagulation Assay” (Assay 4) (see section “General Methods”).
substance,measurement,setting,value
Propyloxycarbonyl-(4-amidino-Phe)-Glu-Asn-Cha-[HN—(CH2—CH2—O)2—(CH2)—C(═O)]5—NH2 [Example 1],Clot activity relative to the initial value,1 mM inhibitor,18%
same,Clot activity relative to the initial value,10 mM inhibitor,86%
same,Clot activity relative to the initial value,30 mM inhibitor,89%
